Experimental data published in ChEMBL document CHEMBL3046118, “Coumarinyl pyrazole derivatives of INH: promising antimycobacterial agents” (Med Chem Res, 2013).
Values after ≈ are worked out from the molar mass of the structure shown.

Tested on: Mycobacterium tuberculosis
Assay: Antimycobacterial activity against Mycobacterium tuberculosis H37Rv assessed as growth inhibition after 6 days by resazurin MIC assay
Assay type: functional, organism-based
Conditions: for IC50 / IC90 / MIC: Mycobacterium tuberculosis, H37Rv, 144 h

Row | SMILES | growth inhibition (GI) [%] | IC50 [µg/mL] | IC90 [µg/mL] | MIC [µg/mL]
1 | O=C(c1ccncc1)n1nc(-c2ccccc2[N+](=O)[O-])cc1-c1cc2ccccc2oc1=O | 67.83 | 1.9 (≈ 4.33 µM) | 2.74 (≈ 6.25 µM) | 2.5 (≈ 5.7 µM)
2 | O=C(c1ccncc1)n1nc(-c2ccc(O)cc2)cc1-c1cc2ccccc2oc1=O | 69.91 | 1.51 (≈ 3.69 µM) | 2.85 (≈ 6.96 µM) | 2.5 (≈ 6.11 µM)
3 | O=C(c1ccncc1)n1nc(-c2ccccc2)cc1-c1cc2ccccc2oc1=O | 73.53 | 1.92 (≈ 4.88 µM) | 2.26 (≈ 5.74 µM) | 2.5 (≈ 6.35 µM)
4 | COc1ccc(-c2cc(-c3cc4ccccc4oc3=O)n(C(=O)c3ccncc3)n2)cc1 | 66.67 | 1.21 (≈ 2.86 µM) | 1.35 (≈ 3.19 µM) | 2.5 (≈ 5.9 µM)
5 | O=C(c1ccncc1)n1nc(-c2ccc(Cl)cc2)cc1-c1cc2ccccc2oc1=O | 75.39 | 0.75 (≈ 1.75 µM) | 1.22 (≈ 2.85 µM) | 1.25 (≈ 2.92 µM)
6 | CN(C)c1ccc(-c2cc(-c3cc4ccccc4oc3=O)n(C(=O)c3ccncc3)n2)cc1 | 73.82 | 1.21 (≈ 2.77 µM) | 2.3 (≈ 5.27 µM) | 2.5 (≈ 5.73 µM)
7 | O=C(c1ccncc1)n1nc(-c2ccc(Cl)cc2Cl)cc1-c1cc2ccccc2oc1=O | 69.09 | 0.74 (≈ 1.6 µM) | 1.46 (≈ 3.16 µM) | 1.25 (≈ 2.7 µM)
8 | O=C(c1ccncc1)n1nc(-c2cccc([N+](=O)[O-])c2)cc1-c1cc2ccccc2oc1=O | 65.39 | 0.89 (≈ 2.03 µM) | 1.67 (≈ 3.81 µM) | 1.25 (≈ 2.85 µM)
9 | Cc1ccc(-c2cc(-c3cc4ccccc4oc3=O)n(C(=O)c3ccncc3)n2)cc1 | 62.63 | 2.46 (≈ 6.04 µM) | 2.69 (≈ 6.6 µM) | 5 (≈ 12.3 µM)
10 | COc1cccc(-c2cc(-c3cc4ccccc4oc3=O)n(C(=O)c3ccncc3)n2)c1 | 65.14 | 1.17 (≈ 2.76 µM) | 1.29 (≈ 3.05 µM) | 1.25 (≈ 2.95 µM)
11 | O=C(c1ccncc1)n1nc(-c2ccc(F)cc2)cc1-c1cc2ccccc2oc1=O | 80.09 | 0.41 (≈ 0.997 µM) | 0.73 (≈ 1.77 µM) | 0.625 (≈ 1.52 µM)
12 | NNC(=O)c1ccncc1 [ISONIAZID] |  |  |  | 0.06 (≈ 0.438 µM)
13 | CO[C@H]1/C=C/O[C@@]2(C)Oc3c(C)c(O)c4c(O)c(c(/C=N/N5CCN(C)CC5)c(O)c4c3C2=O)NC(=O)/C(C)=C\C=C\[C@H](C)[C@H](O)[C@@H](C)[C@@H](O)[C@@H](C)[C@H](OC(C)=O)[C@@H]1C [RIFAMPIN] |  |  |  | 0.003 (≈ 0.00365 µM)
